According to PubChem BioAssay (NCI):
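Protocol summary: plate cells (96-well), add compound at 5 concentrations, incubate 48 h, interpolate endpoints linearly. At the GI50, growth is halved. At the TGI there is no net growth.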

These compounds were tested on DLD-1 colon (assay: DTP human tumour cell line panel, 48 h).

Row | Compound | TGI
1 | COc1c2c(cc3nc4ccccc4nc13)CCC(C(C)(C)O)C2 (stereo not given) | > 100 µM
2 | CN(C)CC/C(=N\Nc1c(Cl)cccc1Cl)c1ccccc1 | > 100 µM
3 | CC(C)=CCC/C(=C/CC/C(C)=C/CCc1ccoc1)C(=O)O | > 100 µM
4 | COc1ccc(-c2cn3ccsc3n2)cc1 | > 100 µM
5 | CCOC1=NC(=O)CC(c2ccccc2)S1 (stereo not given) | > 100 µM
6 | CCOC(=O)C(Cc1ccc2ccccc2c1)(Cc1ccc2ccccc2c1)C(C)=O | > 10 µM

These compounds were tested on NCI-H460 lung (assay: DTP human tumour cell line panel, 48 h).

Row | Compound | GI50 | TGI
7 | N.N.N.N.N.O=C([O-])c1nn[n-]n1.[Cl-].[Co+3] | > 100 µM | > 100 µM
8 | COc1c2c(cc3nc4ccccc4nc13)CCC(C(C)(C)O)C2 (stereo not given) |  | > 100 µM
9 | CN(C)CC/C(=N\Nc1c(Cl)cccc1Cl)c1ccccc1 |  | 29.9 µM
10 | CC(C)=CCC/C(=C/CC/C(C)=C/CCc1ccoc1)C(=O)O |  | > 100 µM
11 | COc1ccc(-c2cn3ccsc3n2)cc1 |  | > 100 µM
12 | CCOC1=NC(=O)CC(c2ccccc2)S1 (stereo not given) |  | > 100 µM
13 | CCOC(=O)C(Cc1ccc2ccccc2c1)(Cc1ccc2ccccc2c1)C(C)=O |  | > 10 µM

Each compound was assayed on XF 498 CNS (assay: DTP human tumour cell line panel, 48 h).

Row | Compound | TGI
14 | COc1c2c(cc3nc4ccccc4nc13)CCC(C(C)(C)O)C2 (stereo not given) | > 100 µM
15 | CC(C)=CCC/C(=C/CC/C(C)=C/CCc1ccoc1)C(=O)O | > 100 µM
16 | CCOC1=NC(=O)CC(c2ccccc2)S1 (stereo not given) | > 100 µM
17 | CCOC(=O)C(Cc1ccc2ccccc2c1)(Cc1ccc2ccccc2c1)C(C)=O | > 10 µM

Each compound was assayed on MALME-3M melanoma (assay: DTP human tumour cell line panel, 48 h).

Row | Compound | GI50 | TGI
18 | N.N.N.N.N.O=C([O-])c1nn[n-]n1.[Cl-].[Co+3] | > 100 µM | > 100 µM
19 | COc1c2c(cc3nc4ccccc4nc13)CCC(C(C)(C)O)C2 (stereo not given) |  | > 100 µM
20 | CN(C)CC/C(=N\Nc1c(Cl)cccc1Cl)c1ccccc1 |  | 43.6 µM
21 | CC(C)=CCC/C(=C/CC/C(C)=C/CCc1ccoc1)C(=O)O |  | > 100 µM
22 | COc1ccc(-c2cn3ccsc3n2)cc1 |  | > 100 µM
23 | CCOC1=NC(=O)CC(c2ccccc2)S1 (stereo not given) |  | > 100 µM
24 | CCOC(=O)C(Cc1ccc2ccccc2c1)(Cc1ccc2ccccc2c1)C(C)=O |  | > 10 µM

These compounds were tested on OVCAR-4 ovarian (assay: DTP human tumour cell line panel, 48 h).

Row | Compound | GI50 | TGI
25 | N.N.N.N.N.O=C([O-])c1nn[n-]n1.[Cl-].[Co+3] | > 100 µM | > 100 µM
26 | COc1c2c(cc3nc4ccccc4nc13)CCC(C(C)(C)O)C2 (stereo not given) |  | > 100 µM
27 | CN(C)CC/C(=N\Nc1c(Cl)cccc1Cl)c1ccccc1 |  | 47.4 µM
28 | CC(C)=CCC/C(=C/CC/C(C)=C/CCc1ccoc1)C(=O)O |  | > 100 µM
29 | COc1ccc(-c2cn3ccsc3n2)cc1 |  | > 100 µM
30 | CCOC1=NC(=O)CC(c2ccccc2)S1 (stereo not given) |  | > 100 µM
31 | CCOC(=O)C(Cc1ccc2ccccc2c1)(Cc1ccc2ccccc2c1)C(C)=O |  | > 10 µM

These compounds were tested on CAKI-1 renal (assay: DTP human tumour cell line panel, 48 h).

Row | Compound | GI50 | TGI
32 | N.N.N.N.N.O=C([O-])c1nn[n-]n1.[Cl-].[Co+3] | > 100 µM | > 100 µM
33 | COc1c2c(cc3nc4ccccc4nc13)CCC(C(C)(C)O)C2 (stereo not given) |  | > 100 µM
34 | COc1ccc(-c2cn3ccsc3n2)cc1 |  | > 100 µM
35 | CCOC1=NC(=O)CC(c2ccccc2)S1 (stereo not given) |  | > 100 µM

The compounds below were run on DMS 114 small cell lung (assay: DTP human tumour cell line panel, 48 h).

Row | Compound | TGI
36 | CN(C)CC/C(=N\Nc1c(Cl)cccc1Cl)c1ccccc1 | 34 µM
37 | CC(C)=CCC/C(=C/CC/C(C)=C/CCc1ccoc1)C(=O)O | > 100 µM
38 | COc1ccc(-c2cn3ccsc3n2)cc1 | > 100 µM

The compounds below were run on SF-295 CNS (assay: DTP human tumour cell line panel, 48 h).

Row | Compound | GI50 | TGI
39 | N.N.N.N.N.O=C([O-])c1nn[n-]n1.[Cl-].[Co+3] | > 100 µM | > 100 µM
40 | COc1c2c(cc3nc4ccccc4nc13)CCC(C(C)(C)O)C2 (stereo not given) |  | > 100 µM
41 | CN(C)CC/C(=N\Nc1c(Cl)cccc1Cl)c1ccccc1 |  | 35.9 µM
42 | CC(C)=CCC/C(=C/CC/C(C)=C/CCc1ccoc1)C(=O)O |  | > 100 µM
43 | COc1ccc(-c2cn3ccsc3n2)cc1 |  | > 100 µM
44 | CCOC1=NC(=O)CC(c2ccccc2)S1 (stereo not given) |  | > 100 µM

These compounds were tested on MOLT-4 leukemia (assay: DTP human tumour cell line panel, 48 h).

Row | Compound | GI50 | TGI
45 | N.N.N.N.N.O=C([O-])c1nn[n-]n1.[Cl-].[Co+3] | > 100 µM | > 100 µM
46 | COc1c2c(cc3nc4ccccc4nc13)CCC(C(C)(C)O)C2 (stereo not given) |  | > 100 µM
47 | CN(C)CC/C(=N\Nc1c(Cl)cccc1Cl)c1ccccc1 |  | 71.7 µM
48 | CC(C)=CCC/C(=C/CC/C(C)=C/CCc1ccoc1)C(=O)O |  | > 100 µM
49 | COc1ccc(-c2cn3ccsc3n2)cc1 |  | > 100 µM
50 | CCOC1=NC(=O)CC(c2ccccc2)S1 (stereo not given) |  | > 100 µM
51 | CCOC(=O)C(Cc1ccc2ccccc2c1)(Cc1ccc2ccccc2c1)C(C)=O |  | 8.61 µM

Each compound was assayed on SK-MEL-2 melanoma (assay: DTP human tumour cell line panel, 48 h).

Row | Compound | GI50 | TGI
52 | N.N.N.N.N.O=C([O-])c1nn[n-]n1.[Cl-].[Co+3] | > 100 µM | > 100 µM
53 | COc1c2c(cc3nc4ccccc4nc13)CCC(C(C)(C)O)C2 (stereo not given) |  | > 100 µM
54 | CN(C)CC/C(=N\Nc1c(Cl)cccc1Cl)c1ccccc1 |  | 34.1 µM
55 | CC(C)=CCC/C(=C/CC/C(C)=C/CCc1ccoc1)C(=O)O |  | > 100 µM
56 | COc1ccc(-c2cn3ccsc3n2)cc1 |  | > 100 µM
57 | CCOC1=NC(=O)CC(c2ccccc2)S1 (stereo not given) |  | > 100 µM

What follows are compounds tested on SK-MEL-5 melanoma (assay: DTP human tumour cell line panel, 48 h).

Row | Compound | GI50 | TGI
58 | N.N.N.N.N.O=C([O-])c1nn[n-]n1.[Cl-].[Co+3] | > 100 µM | > 100 µM
59 | COc1c2c(cc3nc4ccccc4nc13)CCC(C(C)(C)O)C2 (stereo not given) |  | > 100 µM
60 | CN(C)CC/C(=N\Nc1c(Cl)cccc1Cl)c1ccccc1 |  | 29.5 µM
61 | CC(C)=CCC/C(=C/CC/C(C)=C/CCc1ccoc1)C(=O)O |  | > 100 µM
62 | COc1ccc(-c2cn3ccsc3n2)cc1 |  | > 100 µM
63 | CCOC1=NC(=O)CC(c2ccccc2)S1 (stereo not given) |  | > 100 µM

These compounds were tested on SF-539 CNS (assay: DTP human tumour cell line panel, 48 h).

Row | Compound | GI50 | TGI
64 | N.N.N.N.N.O=C([O-])c1nn[n-]n1.[Cl-].[Co+3] | > 100 µM | > 100 µM
65 | COc1c2c(cc3nc4ccccc4nc13)CCC(C(C)(C)O)C2 (stereo not given) |  | > 100 µM
66 | CN(C)CC/C(=N\Nc1c(Cl)cccc1Cl)c1ccccc1 |  | 34.2 µM
67 | CC(C)=CCC/C(=C/CC/C(C)=C/CCc1ccoc1)C(=O)O |  | > 100 µM
68 | COc1ccc(-c2cn3ccsc3n2)cc1 |  | > 100 µM
69 | CCOC1=NC(=O)CC(c2ccccc2)S1 (stereo not given) |  | > 100 µM

The compounds below were run on SNB-78 CNS (assay: DTP human tumour cell line panel, 48 h).

Row | Compound | GI50 | TGI
70 | N.N.N.N.N.O=C([O-])c1nn[n-]n1.[Cl-].[Co+3] | > 100 µM | > 100 µM
71 | COc1c2c(cc3nc4ccccc4nc13)CCC(C(C)(C)O)C2 (stereo not given) |  | > 100 µM
72 | CN(C)CC/C(=N\Nc1c(Cl)cccc1Cl)c1ccccc1 |  | 62.1 µM
73 | CC(C)=CCC/C(=C/CC/C(C)=C/CCc1ccoc1)C(=O)O |  | > 100 µM
74 | COc1ccc(-c2cn3ccsc3n2)cc1 |  | > 100 µM
75 | CCOC1=NC(=O)CC(c2ccccc2)S1 (stereo not given) |  | > 100 µM
76 | CCOC(=O)C(Cc1ccc2ccccc2c1)(Cc1ccc2ccccc2c1)C(C)=O |  | > 10 µM

The compounds below were run on HCT-116 colon (assay: DTP human tumour cell line panel, 48 h).

Row | Compound | GI50 | TGI
77 | N.N.N.N.N.O=C([O-])c1nn[n-]n1.[Cl-].[Co+3] | > 100 µM | > 100 µM
78 | COc1c2c(cc3nc4ccccc4nc13)CCC(C(C)(C)O)C2 (stereo not given) |  | > 100 µM
79 | CN(C)CC/C(=N\Nc1c(Cl)cccc1Cl)c1ccccc1 |  | 29.1 µM
80 | CC(C)=CCC/C(=C/CC/C(C)=C/CCc1ccoc1)C(=O)O |  | > 100 µM
81 | COc1ccc(-c2cn3ccsc3n2)cc1 |  | > 100 µM
82 | CCOC1=NC(=O)CC(c2ccccc2)S1 (stereo not given) |  | > 100 µM

These compounds were tested on HCC-2998 colon (assay: DTP human tumour cell line panel, 48 h).

Row | Compound | GI50 | TGI
83 | N.N.N.N.N.O=C([O-])c1nn[n-]n1.[Cl-].[Co+3] | > 100 µM | > 100 µM
84 | COc1c2c(cc3nc4ccccc4nc13)CCC(C(C)(C)O)C2 (stereo not given) |  | > 100 µM
85 | CC(C)=CCC/C(=C/CC/C(C)=C/CCc1ccoc1)C(=O)O |  | > 100 µM
86 | COc1ccc(-c2cn3ccsc3n2)cc1 |  | > 100 µM
87 | CCOC1=NC(=O)CC(c2ccccc2)S1 (stereo not given) |  | > 100 µM
88 | CCOC(=O)C(Cc1ccc2ccccc2c1)(Cc1ccc2ccccc2c1)C(C)=O |  | 8.51 µM
